Measurements reported in patent US20240376056A1, “PHENYL ACETAMIDE BASED IL-17A MODULATORS AND USES THEREOF” (DiCE Alpha, Inc., priority 2021, published 2024).
Counter-ions that a name gives are not always drawn.

Target: T1, IL-17A/A (Homo sapiens, UniProt Q16552)
T1 construct: purchased Genscript Z03228
T1 sequence (Q16552 24-155): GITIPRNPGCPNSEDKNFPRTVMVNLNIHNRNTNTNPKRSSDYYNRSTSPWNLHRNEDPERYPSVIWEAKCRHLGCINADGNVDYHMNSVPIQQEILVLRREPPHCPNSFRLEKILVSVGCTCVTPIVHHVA
Assay: HEK-Blue IL-17A/A inhibition assay (SEAP reporter)
Type: cell-based
Conditions: HEK-Blue cells (HEK 293 expressing IL-17RA, IL-17RC, Act1); IL-17A/A stimulation; 20 hours; SEAP read at A630; 4-parameter fit
Procedure, shortened: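 IC50 from a 4-parameter fit of SEAP signal (Quanti-Blue, A630) after 20 h co-incubation of compound and IL-17A/A. Reporter line: HEK 293 expressing IL-17RA, IL-17RC and Act1 with NFκB-SEAP; compound top final 10, 1 or 0.3 uM, DMSO 0.1% final.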

SMILES | IC50 [µM]
CCCNC(=O)Cc1ccc(NC(=O)[C@@H](NC(=O)c2ccnn2CC)C2CCCCCC2)c(F)c1 [Compound 114, (S)-N-(1-cycloheptyl-2-((2-fluoro-4-(2-oxo-2-(propylamino)ethyl)phenyl)amino)-2-oxoethyl)-1-ethyl-1H-pyrazole-5-carboxamide] | > 1
CC(C)n1nccc1C(=O)N[C@H](C(=O)Nc1ccc([C@H](C)C(=O)N2CCC(N)C2)cc1F)C(C1CC1)C1CC1 (stereo partly drawn) [Compound 132, N-((2S)-1-((4-((2S)-1-(3-aminopyrrolidin-1-yl)-1-oxopropan-2-yl)-2-fluorophenyl)amino)-3,3-dicyclopropyl-1-oxopropan-2-yl)-1-isopropyl-1H-pyrazole-5-carboxamide] | > 1
CC(=O)NC1CCN(C(=O)[C@@H](C)c2ccc(NC(=O)[C@@H](NC(=O)c3ccnn3C(C)C)C(C3CC3)C3CC3)c(F)c2)C1 (stereo partly drawn) [Compound 136, N-((2S)-1-((4-((2S)-1-(3-acetamidopyrrolidin-1-yl)-1-oxopropan-2-yl)-2-fluorophenyl)amino)-3,3-dicyclopropyl-1-oxopropan-2-yl)-1-isopropyl-1H-pyrazole-5-carboxamide] | > 1
CC(C)n1nccc1C(=O)N[C@H](C(=O)Nc1ccc([C@H](C)C(=O)NC(CNC(=O)OC(C)(C)C)C(F)(F)F)cc1F)C(C1CC1)C1CC1 (stereo partly shown) [Compound 154] | 0.1 to 1
CC(C)n1nccc1C(=O)N[C@H](C(=O)Nc1ccc([C@H](C)C(=O)N[C@H](CO)C2CCC2)cc1F)C(C1CC1)C1CC1 [Compound 155] | > 1
CC(C)n1nccc1C(=O)N[C@H](C(=O)Nc1ccc([C@H](C)C(=O)N[C@@H](CO)C2CCC2)cc1F)C(C1CC1)C1CC1 [Compound 156] | 0.1 to 1
CC(C)n1nccc1C(=O)N[C@H](C(=O)Nc1ccc([C@H](C)C(=O)NC(CN)C(F)(F)F)cc1F)C(C1CC1)C1CC1 (stereo partly drawn) [Compound 157, N-((2S)-1-((4-((2S)-1-((3-amino-1,1,1-trifluoropropan-2-yl)amino)-1-oxopropan-2-yl)-2-fluorophenyl)amino)-3.3-dicyclopropyl-1-oxopropan-2-yl)-1-isopropyl-1H-pyrazole-5-carboxamide hydrochloride] | 0.1 to 1
CC(C)n1nccc1C(=O)N[C@H](C(=O)Nc1cc(CN(C)C)c([C@H](C)C(=O)NCC(F)(F)F)cc1F)C(C1CC1)C1CC1 [Compound 165, N-((S)-1,1-dicyclopropyl-3-((5-((dimethylamino)methyl)-2-fluoro-4-((S)-1-oxo-1-((2,2,2-trifluoroethyl)amino)propan-2-yl)phenyl)amino)-3-oxopropan-2-yl)-1-isopropyl-1H-pyrazole-5-carboxamide] | 0.1 to 1
CC(C)n1nccc1C(=O)N[C@H](C(=O)Nc1cc(CCN(C)C)c([C@H](C)C(=O)NCC(F)(F)F)cc1F)C(C1CC1)C1CC1 [Compound 166, N-((S)-1,1-dicyclopropyl-3-((5-(2-(dimethylamino)ethyl)-2-fluoro-4-((S)-1-oxo-1-((2,2,2-trifluoroethyl)amino)propan-2-yl)phenyl)amino)-3-oxopropan-2-yl)-1-isopropyl-1H-pyrazole-5-carboxamide] | 0.1 to 1
CC(C)n1nccc1C(=O)N[C@H](C(=O)Nc1ccc(C(CO)C(=O)NCC(F)(F)F)cc1F)C(C1CC1)C1CC1 (stereo partly drawn) [Compound 168, N-((2S)-1.1-dicyclopropyl-3-((2-fluoro-4-(3-hydroay-1-oxo-11-((2,2,2-trifluoroethyl)amino)propan-2-yl)phenyl)amino)-3-oxopropan-2-yl)-1-isopropyl-1H-pyrazole-5-carboxamide] | 0.1 to 1
CCC(c1ccc(F)cc1)[C@H](NC(=O)c1ccnn1C(C)C)C(=O)Nc1cc(OC)c(C(C)C(=O)NCC(F)(F)F)cc1F (stereo partly shown) [Compound 175] | 0.1 to 1
CC[C@@H](c1ccc(F)cc1)[C@H](NC(=O)c1ccnn1C(C)C)C(=O)Nc1cc(OC)c(C(C)C(=O)NCC(F)(F)F)cc1F (stereo partly shown) [Compound 177] | 0.1 to 1
Cc1cc(NC(=O)[C@@H](NC(=O)c2ccnn2C(C)C)C(C2CC2)C2CC2)c(F)cc1C(C)C(=O)NC(C(N)=O)C(F)(F)F (stereo partly shown) [Compound 178] | 0.1 to 1
CC(C(=O)NCC(F)(F)F)c1cc(F)c(NC(=O)[C@@H](NC(=O)c2ccnn2C(C)C)C(C2CC2)C2CC2)cc1N1CCCC1=O (stereo partly shown) [Compound 187] | 0.1 to 1
CC(=O)NC(C(=O)NCC(F)(F)F)c1ccc(NC(=O)[C@@H](NC(=O)c2ccnn2C(C)C)C(C2CC2)C2CC2)c(F)c1 (stereo partly shown) [Compound 190] | > 1
CC(C)n1nccc1C(=O)N[C@H](C(=O)Nc1ccc(C(CO)C(=O)NCC(F)(F)F)cc1F)C(C1CC1)C1CC1 (stereo partly shown) [Compound 193] | > 1
CCOc1cc(NC(=O)[C@@H](NC(=O)c2ccnn2C(C)C)C(C2CC2)C2CC2)c(F)cc1C(C)C(=O)NCC(F)(F)F (stereo partly shown) [Compound 194] | 0.1 to 1
CNc1cc(NC(=O)[C@@H](NC(=O)c2ccnn2C(C)C)C(C2CC2)C2CC2)c(F)cc1C(C)C(=O)NCC(F)(F)F (stereo partly shown) [Compound 196] | > 1
Cc1cc(NC(=O)[C@@H](NC(=O)c2nonc2C)C2CCC(F)(F)CC2)c(F)cc1C(C)C(=O)NCC(F)(F)F (stereo partly shown) [Compound 197] | > 1
Cc1cc(NC(=O)[C@@H](NC(=O)c2nonc2C)C2CCC(F)(F)CC2)c(F)cc1C(C)C(=O)N(C)CC(F)(F)F (stereo partly shown) [Compound 198] | 0.1 to 1
CCn1nccc1C(=O)N[C@H](C(=O)Nc1cc(C)c(C(C)C(=O)NCC(F)(F)F)cc1F)[C@H]1CC[C@H](C)CC1 (stereo partly shown) [Compound 201] | > 1
CC(C(=O)N1CC(C#N)CCC1C(F)(F)F)c1ccc(NC(=O)[C@@H](NC(=O)c2ccnn2C(C)C)C(C2CC2)C2CC2)c(F)c1 (stereo partly shown) [Compound 204] | 0.1 to 1
CCc1nonc1C(=O)N[C@H](C(=O)Nc1cc(C)c(C(C)C(=O)NCC(F)(F)F)cc1F)C(C1CC1)C1CC1 (stereo partly shown) [Compound 206] | 0.1 to 1

Continued, values first:

IC50 [µM] | SMILES
0.1 to 1 | CC(C(=O)NCC(F)(F)F)c1cc(F)c(NC(=O)[C@@H](NC(=O)c2ccnn2C(C)C)C(C2CC2)C2CC2)cc1CN (stereo partly drawn) [Compound 119, N-((2S)-1-((5-(aminomethyl)-2-fluoro-4-(1-oxo-1-((2,2,2-trifluoroethyl)amino)propan-2-yl)phenyl)amino)-3,3-dicyclopropyl-1-oxopropan-2-yl)-1-isopropyl-1H-pyrazole-5-carboxamide]
0.1 to 1 | CC1CN(C(=O)[C@@H](C)c2ccc(NC(=O)[C@@H](NC(=O)c3ccnn3C(C)C)C(C3CC3)C3CC3)c(F)c2)C(C(F)(F)F)CO1 (stereo partly drawn) [Compound 135, N-((2S)-1,1-dicyclopropyl-3-((2-fluoro-4-((2S)-1-(2-methyl-5-(trifluoromethyl)morpholino)-1-oxopropan-2-yl)phenyl)amino)-3-oxopropan-2-yl)-1-isopropyl-1H-pyrazole-5-carboxamide]
0.1 to 1 | CC(C)n1nccc1C(=O)N[C@H](C(=O)Nc1ccc([C@H](C)C(=O)N(CCN)CC(F)(F)F)cc1F)C(C1CC1)C1CC1 [Compound 139, N-((S)-1-((4-((S)-1-((2-aminoethyl)(2,2,2-trifluoroethyl)amino)-1-oxopropan-2-yl)-2-fluorophenyl)amino)-3,3-dicyclopropyl-1-oxopropan-2-yl)-1-isopropyl-1H-pyrazole-5-carboxamide]
0.1 to 1 | CC(C)n1nccc1C(=O)N[C@H](C(=O)Nc1ccc([C@H](C)C(=O)N(CC(F)(F)F)C2CCOC2)cc1F)C(C1CC1)C1CC1 (stereo partly shown) [Compound 153]
< 0.1 | CC(C(=O)NCC(F)(F)F)c1cc(F)c(NC(=O)[C@@H](NC(=O)c2ccnn2C(C)C)C(C2CC2)C2CC2)cc1N1CCCC1 (stereo partly drawn) [Compound 160, N-((2S)-1,1-dicyclopropyl-3-((2-fluoro-4-(1-oxo-1-((2,2,2-trifluoroethyl)amino)propan-2-yl)-5-(pyrrolidin-1-yl)phenyl)ammno)-3-oxopropan-2-yl)-1-isopropyl-1H-pyrazole-5-carboxamide]
< 0.1 | CC(C(=O)NCC(F)(F)F)c1cc(F)c(NC(=O)[C@@H](NC(=O)c2ccnn2C(C)C)C(C2CC2)C2CC2)cc1C(F)(F)F (stereo partly shown) [Compound 169]
< 0.1 | CCn1nccc1C(=O)N[C@H](C(=O)Nc1cc(OC)c(C(C)C(=O)N(C)CC(F)(F)F)cc1F)C(C1CC1)C1CC1 (stereo partly shown) [Compound 174]
< 0.1 | COc1cc(NC(=O)[C@@H](NC(=O)c2ccnn2C(C)C)C(C2CC2)C2CC2)c(F)cc1C(C)C(=O)N(C)CC(F)(F)F (stereo partly shown) [Compound 176]
< 0.1 | COc1cc(NC(=O)[C@@H](NC(=O)c2ccnn2C)C(C2CC2)C2CC2)c(F)cc1C(C)C(=O)N(C)CC(F)(F)F (stereo partly shown) [Compound 179]
< 0.1 | Cc1cc(NC(=O)C(NC(=O)c2ccnn2C(C)C)C(C2CC2)C2CC2)c(F)cc1C(C)C(=O)N1CC(C)OCC1C(F)(F)F (stereo not shown) [Compound 184]
< 0.1 | CC(C(=O)NCC(F)(F)F)c1cc(F)c(NC(=O)[C@@H](NC(=O)c2ccnn2C(C)C)C(C2CC2)C2CC2)cc1N1CCOCC1 (stereo partly shown) [Compound 188]
< 0.1 | CCC(C(=O)N(C)CC(F)(F)F)c1ccc(NC(=O)[C@@H](NC(=O)c2ccnn2C(C)C)C(C2CC2)C2CC2)c(F)c1 (stereo partly shown) [Compound 192]
< 0.1 | CCOc1cc(NC(=O)[C@@H](NC(=O)c2ccnn2C(C)C)C(C2CC2)C2CC2)c(F)cc1C(C)C(=O)N(C)CC(F)(F)F (stereo partly shown) [Compound 195]
< 0.1 | CCn1nccc1C(=O)N[C@H](C(=O)Nc1cc(C)c(C(C)C(=O)N(C)CC(F)(F)F)cc1F)[C@H]1CC[C@H](C)CC1 (stereo partly shown) [Compound 202]
< 0.1 | CC[C@@H](c1ccc(F)cc1)[C@H](NC(=O)c1ccnn1CC)C(=O)Nc1cc(C)c(C(C)C(=O)N(C)CC(F)(F)F)cc1F (stereo partly shown) [Compound 203]
< 0.1 | CCc1nonc1C(=O)N[C@H](C(=O)Nc1cc(C)c(C(C)C(=O)N(C)CC(F)(F)F)cc1F)C(C1CC1)C1CC1 (stereo partly shown) [Compound 205]
< 0.1 | Cc1cc(NC(=O)[C@@H](NC(=O)c2ccnn2C(C)C)C2CCC(F)(F)CC2)c(F)cc1C(C)C(=O)N(C)CC(F)(F)F (stereo partly shown) [Compound 207]
